Assay results reported in US9108944B2, “Androgen receptor modulators and uses thereof” (ARAGON PHARMACEUTICALS, INC., priority 2010, dated 2015).
pIC50: −log10 of the molar value.

Assays:
AR-VP16 [1] = biological target: T1, AR-VP16 (Homo sapiens, UniProt P10275); experiment: AR-VP16 DNA Binding Assay, agonist mode (HepG2 cells); assay type: cell-based; settings: Emax >20x DMSO control = agonist
T1 sequence (P10275 560-920 limits assumed): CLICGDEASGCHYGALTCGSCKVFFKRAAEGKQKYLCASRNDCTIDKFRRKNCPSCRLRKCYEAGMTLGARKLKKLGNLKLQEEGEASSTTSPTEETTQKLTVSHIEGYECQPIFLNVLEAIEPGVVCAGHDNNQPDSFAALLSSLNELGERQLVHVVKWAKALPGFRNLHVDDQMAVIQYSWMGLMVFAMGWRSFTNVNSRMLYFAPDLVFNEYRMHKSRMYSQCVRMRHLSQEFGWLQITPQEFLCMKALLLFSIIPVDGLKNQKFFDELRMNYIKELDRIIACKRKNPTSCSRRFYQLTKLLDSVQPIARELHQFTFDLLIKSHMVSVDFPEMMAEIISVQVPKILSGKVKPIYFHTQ

AR-VP16 [2] = biological target: T1, AR-VP16; experiment: AR-VP16 DNA Binding Assay, antagonist mode (HepG2 cells, 0.1 nM R1881); assay type: cell-based
Summary of the method: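 Transfected HepG2 cells expressing AR-VP16 received serially diluted compound in charcoal-stripped-serum RPMI the day after transfection, with 0.1 nM R1881 (final) added only for antagonist testing. After 48 h, cells were lysed for measurement.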

Structure (SMILES)	ARVP16 DNA Binding Assay (Agonist mode): Agonist? (AR-VP16 [1])	pIC50 (AR-VP16 [2])
CNC(=O)c1ccc(N2C(=S)N(c3cnc(C#N)c(C)c3)C(=O)C23CCC3)cc1OC [Compound 107, 4-(7-(6-Cyano-5-methylpyridin-3-yl)-8-oxo-6-thioxo-5,7-diazaspiro[3.4]octan-5-yl)-2-methoxy-N-methylbenzamide]	No (Agonist defined as a compound whose Emax in the ARVP16 DNA Binding Assay (Agonist mode) is >20x DMSO control)	> 6.00
N#Cc1ncc(N2C(=O)C3(CCC3)N(c3ccc(C(=O)NCCCN4CCCC4=O)c(F)c3)C2=S)cc1C(F)(F)F [Compound 308, 4-(7-(6-Cyano-5-(trifluoromethyl)pyridin-3-yl)-8-oxo-6-thioxo-5,7-diazaspiro[3.4]octan-5-yl)-2-fluoro-N-(3-(2-oxopyrrolidin-1-yl)propyl)benzamide]	No (Agonist defined as a compound whose Emax in the ARVP16 DNA Binding Assay (Agonist mode) is >20x DMSO control)	> 6.00
CN(C)S(=O)(=O)c1ccc(N2C(=S)N(c3cnc(C#N)c(C(F)(F)F)c3)C(=O)C23CCC3)cc1 [Compound 121, 4-(7-(6-Cyano-5-(trifluoromethyl)pyridin-3-yl)-8-oxo-6-thioxo-5,7-diazaspiro[3.4]octan-5-yl)-N,N-dimethylbenzenesulfonamide]	No (Agonist defined as a compound whose Emax in the ARVP16 DNA Binding Assay (Agonist mode) is >20x DMSO control)	< 6.00
CCOC(=O)CN1CCC(Oc2ccc(N3C(=S)N(c4cnc(C#N)c(C(F)(F)F)c4)C(=O)C34CCC4)cc2)CC1 [Compound 221, Ethyl 2-(4-(4-(7-(6-cyano-5-(trifluoromethyl)pyridin-3-yl)-8-oxo-6-thioxo-5,7-diazaspiro[3.4]octan-5-yl)phenoxy)piperidin-1-yl)acetate]	No (Agonist defined as a compound whose Emax in the ARVP16 DNA Binding Assay (Agonist mode) is >20x DMSO control)	< 6.00
Cc1cc(N2C(=O)C3(CCC3)N(c3ccc(OCCN4CCN(C)CC4)cc3)C2=S)cnc1C#N [Compound 200, 3-Methyl-5-(5-(4-(2-(4-methylpiperazin-1-yl)ethoxy)phenyl)-8-oxo-6-thioxo-5,7-diazaspiro[3.4]octan-7-yl)picolinonitrile]	Yes (Agonist defined as a compound whose Emax in the ARVP16 DNA Binding Assay (Agonist mode) is >20x DMSO control)	> 6.00
N#Cc1ncc(N2C(=O)C3(CCC3)N(c3ccc(OCCN4CCOCC4)c(F)c3)C2=S)cc1C(F)(F)F [Compound 143, 5-(5-(3-Fluoro-4-(2-morpholinoethoxy)phenyl)-8-oxo-6-thioxo-5,7-diazaspiro[3.4]octan-7-yl)-3-(trifluoromethyl)picolinonitrile]	Yes (Agonist defined as a compound whose Emax in the ARVP16 DNA Binding Assay (Agonist mode) is >20x DMSO control)	> 6.00
CS(=O)(=O)N1CCC(Oc2ccc(N3C(=S)N(c4cnc(C#N)c(C(F)(F)F)c4)C(=O)C34CCC4)cc2)CC1 [Compound 219, 5-(5-(4-((1-(methylsulfonyl)piperidin-4-yl)oxy)phenyl)-8-oxo-6-thioxo-5,7-diazaspiro[3.4]octan-7-yl)-3-(trifluoromethyl)picolinonitrile]	Yes (Agonist defined as a compound whose Emax in the ARVP16 DNA Binding Assay (Agonist mode) is >20x DMSO control)	> 6.00
N#Cc1ncc(N2C(=O)C3(CCC3)N(c3cccc(F)c3)C2=S)cc1C(F)(F)F [Compound 27, 5-(5-(3-Fluorophenyl)-8-oxo-6-thioxo-5,7-diazaspiro[3.4]octan-7-yl)-3-(trifluoromethyl)picolinonitrile]	No (Agonist defined as a compound whose Emax in the ARVP16 DNA Binding Assay (Agonist mode) is >20x DMSO control)	> 6.00
COCCOc1ccc(N2C(=S)N(c3cnc(C#N)c(C)c3)C(=O)C23CCC3)cc1F [Compound 168, 5-(5-(3-Fluoro-4-(2-methoxyethoxy)phenyl)-8-oxo-6-thioxo-5,7-diazaspiro[3.4]octan-7-yl)-3-methylpicolinonitrile]	No (Agonist defined as a compound whose Emax in the ARVP16 DNA Binding Assay (Agonist mode) is >20x DMSO control)	> 6.00
N#Cc1ncc(N2C(=O)C3(CCC3)N(c3ccc(OC4CCNCC4)cc3)C2=S)cc1C(F)(F)F [Compound 211, 5-(8-Oxo-5-(4-(piperidin-4-yloxy)phenyl)-6-thioxo-5,7-diazaspiro[3.4]octan-7-yl)-3-(trifluoromethyl)picolinonitrile]	No (Agonist defined as a compound whose Emax in the ARVP16 DNA Binding Assay (Agonist mode) is >20x DMSO control)	> 6.00
N#Cc1ncc(N2C(=O)C3(CCC3)N(c3ccc(F)c(OCCc4ccccn4)c3)C2=S)cc1C(F)(F)F [Compound 158, 5-(5-(4-Fluoro-3-(2-(pyridin-2-yl)ethoxy)phenyl)-8-oxo-6-thioxo-5,7-diazaspiro[3.4]octan-7-yl)-3-(trifluoromethyl)picolinonitrile]	No (Agonist defined as a compound whose Emax in the ARVP16 DNA Binding Assay (Agonist mode) is >20x DMSO control)	< 6.00
CN1CCN(CCCOc2cc(N3C(=S)N(c4cnc(C#N)c(C(F)(F)F)c4)C(=O)C34CCC4)ccc2F)CC1 [Compound 167, 5-(5-(4-Fluoro-3-(3-(4-methylpiperazin-1-yl)propoxy)phenyl)-8-oxo-6-thioxo-5,7-diazaspiro[3.4]octan-7-yl)-3-(trifluoromethyl)picolinonitrile]	No (Agonist defined as a compound whose Emax in the ARVP16 DNA Binding Assay (Agonist mode) is >20x DMSO control)	< 6.00
N#Cc1cccc(N2C(=S)N(c3cnc(C#N)c(C(F)(F)F)c3)C(=O)C23CCC3)c1 [Compound 11, 5-(5-(3-Cyanophenyl)-8-oxo-6-thioxo-5,7-diazaspiro[3.4]octan-7-yl)-3-(trifluoromethyl)picolinonitrile]	No (Agonist defined as a compound whose Emax in the ARVP16 DNA Binding Assay (Agonist mode) is >20x DMSO control)	> 6.00
N#Cc1ncc(N2C(=O)C3(CCC3)N(c3ccc(-c4ccccn4)cc3)C2=S)cc1C(F)(F)F [Compound 16, 5-(8-Oxo-5-(4-(pyridin-2-yl)phenyl)-6-thioxo-5,7-diazaspiro[3.4]octan-7-yl)-3-(trifluoromethyl)picolinonitrile]	No (Agonist defined as a compound whose Emax in the ARVP16 DNA Binding Assay (Agonist mode) is >20x DMSO control)	> 6.00
N#Cc1ncc(N2C(=O)C3(CCC3)N(c3ccc(C(N)=O)c(F)c3)C2=S)cc1C(F)(F)F [Compound 231, 4-(7-(6-Cyano-5-(trifluoromethyl)pyridin-3-yl)-8-oxo-6-thioxo-5,7-diazaspiro[3.4]octan-5-yl)-2-fluorobenzamide]	No (Agonist defined as a compound whose Emax in the ARVP16 DNA Binding Assay (Agonist mode) is >20x DMSO control)	> 6.00
O=C1N(c2ccc3nnc(C(F)(F)F)n3n2)C(=S)N(c2ccc(O)cc2)C12CCC2 [Compound 2, 5-(4-Hydroxyphenyl)-6-thioxo-7-(3-(trifluoromethyl)-[1,2,4]triazolo[4,3-b]pyridazin-6-yl)-5,7-diazaspiro[3.4]octan-8-one]	No (Agonist defined as a compound whose Emax in the ARVP16 DNA Binding Assay (Agonist mode) is >20x DMSO control)	< 6.00
N#Cc1ncc(N2C(=O)C3(CCC3)N(c3ccc(C(=O)NCc4ccc(Cl)cc4)c(F)c3)C2=S)cc1C(F)(F)F [Compound 289, N-(4-Chlorobenzyl)-4-(7-(6-cyano-5-(trifluoromethyl)pyridin-3-yl)-8-oxo-6-thioxo-5,7-diazaspiro[3.4]octan-5-yl)-2-fluorobenzamide]	No (Agonist defined as a compound whose Emax in the ARVP16 DNA Binding Assay (Agonist mode) is >20x DMSO control)	> 6.00
N#Cc1ncc(N2C(=O)C3(CCC3)N(c3ccc(C(=O)O)c(F)c3)C2=S)cc1C(F)(F)F [Compound 224, 4-(7-(6-Cyano-5-(trifluoromethyl)pyridin-3-yl)-8-oxo-6-thioxo-5,7-diazaspiro[3.4]octan-5-yl)-2-fluorobenzoic acid]	No (Agonist defined as a compound whose Emax in the ARVP16 DNA Binding Assay (Agonist mode) is >20x DMSO control)	< 6.00
Cc1ccc(-c2ccc(N3C(=S)N(c4cnc(C#N)c(C)c4)C(=O)C34CCC4)cc2)o1 [Compound 7, 3-Methyl-5-(5-(4-(5-methylfuran-2-yl)phenyl)-8-oxo-6-thioxo-5,7-diazaspiro[3.4]octan-7-yl)picolinonitrile]	No (Agonist defined as a compound whose Emax in the ARVP16 DNA Binding Assay (Agonist mode) is >20x DMSO control)	> 6.00
CC(C)NC(=O)c1ccc(N2C(=S)N(c3cnc(C#N)c(C(F)(F)F)c3)C(=O)C23CCC3)cc1F [Compound 279, 4-(7-(6-Cyano-5-(trifluoromethyl)pyridin-3-yl)-8-oxo-6-thioxo-5,7-diazaspiro[3.4]octan-5-yl)-2-fluoro-N-isopropylbenzamide]	No (Agonist defined as a compound whose Emax in the ARVP16 DNA Binding Assay (Agonist mode) is >20x DMSO control)	> 6.00
